Measurements reported in patent publication US20100285959A1, “HERBICIDAL MIXTURES” (priority 2006, published 2010).

Assays:
[1] = tested on: ivyleaf morningglory (IPOHE); assay: Test 8 field trial, preemergence; format: in vivo, Ipomoea hederacea; conditions: g a.i./ha: Cpd 2 100, Atrazine 1680, S-Metolachlor 1870
Text: (§1) Corn seeds (hybrid ‘Pioneer 31G96’) were planted in mid spring season, 3.8 cm deep in a clay loam soil having 2% organic matter and a pH of 6.6. Plots were 6.1 m long by 3.0 m wide with rows spaced 76 cm apart. Seeds were spaced 15 cm apart within the rows. The field was managed using conventional tillage practices. […] A few of the weed species could not be evaluated at every timing. […] Results are the means of the three replicates.

[2] = tested on: common lambsquarters (CHEAL); assay: Test 5 field trial, postemergence; format: in vivo, Chenopodium album; conditions: atrazine 1120, glufosinate 470 or glyphosate 1120 g a.i./ha alone
Text: (§2) Corn seeds (hybrid ‘Pioneer 38H69’) were planted in mid spring season, 5.1 cm deep in a silty clay loam soil having 3% organic matter and a pH of 6.5. Plots were 9.1 m long by 3.0 m wide with rows spaced 76 cm apart. The field was managed using conventional tillage practices. […] All treatments included a surfactant except glufosinate treatments, both alone and in combination. […] Results are summarized in Table 5 and are the means of the three replicates.

common ragweed (AMBEL) [3] = assay: Test 10 field trial, preemergence; format: in vivo, Ambrosia artemisiifolia; conditions: 28 DAA; g a.i./ha: Cpd 2 100, Atrazine 1680, S-Metolachlor 1870
Text: (§3) Corn seeds (hybrid ‘Pioneer 33P65 RR’) were planted in mid spring season, 2.5 cm deep in a silt loam soil. Plots were 9.1 m long by 3.0 m wide with rows spaced 76 cm apart. The field was managed using conventional tillage practices. […] Results are the means of the three replicates.

velvetleaf (ABUTH) [4] = assay: Test 10 field trial, preemergence; format: in vivo, Abutilon theophrasti; conditions: 28 DAA; g a.i./ha: Cpd 2 100, Atrazine 1680, S-Metolachlor 1870
Text: as §3

[5] = tested on: common lambsquarters (CHEAL); assay: Test 8 field trial, preemergence; format: in vivo, Chenopodium album; conditions: g a.i./ha: Cpd 2 100, Atrazine 1680, S-Metolachlor 1870
Text: as §1

velvetleaf (ABUTH) [6] = assay: Test 5 field trial, postemergence; format: in vivo, Abutilon theophrasti; conditions: atrazine 1120, glufosinate 470 or glyphosate 1120 g a.i./ha alone
Text: as §2

giant foxtail (SETFA) [7] = assay: Test 5 field trial, postemergence; format: in vivo, Setaria faberi; conditions: atrazine 1120, glufosinate 470 or glyphosate 1120 g a.i./ha alone
Text: as §2

jimsonweed (DATST) = assay: Test 8 field trial, preemergence; format: in vivo, Datura stramonium; conditions: g a.i./ha: Cpd 2 100, Atrazine 1680, S-Metolachlor 1870
Text: as §1

shepherd's purse (CAPBP) = assay: Test 5 field trial, postemergence; format: in vivo, Capsella bursa-pastoris; conditions: atrazine 1120, glufosinate 470 or glyphosate 1120 g a.i./ha alone
Text: as §2

common blackjack (BIDPI) = assay: Test 11 field trial, preemergence; format: in vivo, Bidens pilosa; parameters: scale not given here
Text: (§4) Corn seeds (hybrid ‘Pioneer 3041’) were planted in mid spring season, 5 cm deep in a clay soil having 2.6% organic matter and a pH of 5.6. Plots were 8 m long by 1.5 m wide with rows spaced 80 cm apart. Seeds were spaced 15 cm apart within the rows. The field was managed using conventional tillage practices. […] Treatments consisted of Compound 2 or
(§5) Goosegrass was not evaluated 16 or 91 days after application.

common ragweed (AMBEL) [8] = assay: Test 8 field trial, preemergence; format: in vivo, Ambrosia artemisiifolia; conditions: g a.i./ha: Cpd 2 100, Atrazine 1680, S-Metolachlor 1870
Text: as §1

giant foxtail (SETFA) [9] = assay: Test 6 field trial, postemergence; format: in vivo, Setaria faberi; conditions: 1120 g a.i./ha
Text: Corn seeds (hybrid ‘Pioneer 35Y62’) were planted in mid spring season, 3.8 cm deep in a silt loam soil having 4% organic matter and a pH of 5.8. Plots were 10.7 m long by 1.5 m wide with rows spaced 76 cm apart. Seeds were spaced 18 cm apart within the rows. The field was managed using conventional tillage practices. […] All treatments included a surfactant except glufosinate treatments, both alone and in combination. […] Results are summarized in Table 6 and are the means of the three replicates.

arrowleaf sida (SIDRH) = assay: Test 11 field trial, preemergence; format: in vivo, Sida rhombifolia
Text: as §4, §5

redroot pigweed (AMARE) = assay: Test 1 field trial, preemergence; format: in vivo, Amaranthus retroflexus; conditions: g a.i./ha: Atrazine 1680, S-Metolachlor 1870
Text: Corn seeds (hybrid ‘Pioneer 34N43’) were planted in mid spring season, 3.8 cm deep in a silt loam soil having 4.6% organic matter and a pH of 6. Plots were 10.7 m long by 1.5 m wide with rows spaced 76 cm apart. Seeds were spaced 18 cm apart within the rows. The field was managed using conventional tillage practices. […] Results are summarized in Table 1 and are the means of the three replicates. […] Colby's Equation (Colby, S. R. “Calculating Synergistic and Antagonistic Responses of Herbicide Combinations,” Weeds, 15(1), pp 20-22 (1967)) calculates the expected additive effect of herbicidal mixtures, and for two active ingredients is of the form:
Pa+b=Pa+Pb−(PaPb/100) • wherein Pa+b is the percentage effect of the mixture expected from additive contribution of the individual components, • Pa is the observed percentage effect of the first active ingredient at the same use rate as in the mixture, and • Pb is the observed percentage effect of the second active ingredient at the same use rate as in the mixture.

[10] = 16 DAA, atrazine 1500 or metolachlor 2500 g a.i./ha alone
[11] = 30 DAA, atrazine 1500 or metolachlor 2500 g a.i./ha alone
[12] = 44 DAA, atrazine 1500 or metolachlor 2500 g a.i./ha alone
[13] = 16 DAA, Cpd 2/Cpd 1 at 62 g a.i./ha, alone or + atrazine 1500 or metolachlor 2500
[14] = 16 DAA, Cpd 2/Cpd 1 at 125 g a.i./ha, alone or + atrazine 1500 or metolachlor 2500
[15] = 30 DAA, Cpd 2/Cpd 1 at 62 g a.i./ha, alone or + atrazine 1500 or metolachlor 2500
[16] = 30 DAA, Cpd 2/Cpd 1 at 125 g a.i./ha, alone or + atrazine 1500 or metolachlor 2500

Compound	IPOHE Obs ([1]; 19 DAA) [%]	IPOHE Obs ([1]; 29 DAA) [%]	IPOHE Obs ([1]; 56 DAA) [%]	CHEAL Obs ([2]; 16 DAA) [%]	CHEAL Obs ([2]; 31 DAA) [%]	AMBEL Obs (common ragweed (AMBEL) [3]) [%]	ABUTH Obs (velvetleaf (ABUTH) [4]) [%]	CHEAL Obs ([5]; 19 DAA) [%]	CHEAL Obs ([5]; 56 DAA) [%]	ABUTH Obs (velvetleaf (ABUTH) [6]; 16 DAA) [%]	ABUTH Obs (velvetleaf (ABUTH) [6]; 31 DAA) [%]	SETFA Obs (giant foxtail (SETFA) [7]; 16 DAA) [%]	SETFA Obs (giant foxtail (SETFA) [7]; 31 DAA) [%]	DATST Obs (jimsonweed (DATST); 19 DAA) [%]	DATST Obs (jimsonweed (DATST); 29 DAA) [%]	DATST Obs (jimsonweed (DATST); 56 DAA) [%]	CAPBP Obs (shepherd's purse (CAPBP); 16 DAA) [%]	CAPBP Obs (shepherd's purse (CAPBP); 31 DAA) [%]	AMBEL Obs (common ragweed (AMBEL) [8]; 19 DAA) [%]	AMBEL Obs (common ragweed (AMBEL) [8]; 29 DAA) [%]	also measured
CCNc1nc(Cl)nc(NC(C)C)n1 [Atrazine, atrazine, reference compound]	45	100	95	79	70	95	55	100	100	40	13	0	0	53	100	100	95	100	83	98	BIDPI Obs (common blackjack (BIDPI); [10]): 100; BIDPI Obs (common blackjack (BIDPI); [11]): 97; BIDPI Obs (common blackjack (BIDPI); [12]): 80; BIDPI Obs (common blackjack (BIDPI); 62 DAA, atrazine 1500 or metolachlor 2500 g a.i./ha alone): 70; BIDPI Obs (common blackjack (BIDPI); 91 DAA, atrazine 1500 or metolachlor 2500 g a.i./ha alone): 40; AMBEL Obs (common ragweed (AMBEL) [8]; 56 DAA): 100%; SETFA Obs (giant foxtail (SETFA) [9]; 14 DAA): 0%; SETFA Obs (giant foxtail (SETFA) [9]; 28 DAA): 0%; SIDRH Obs (arrowleaf sida (SIDRH); [10]): 97; SIDRH Obs (arrowleaf sida (SIDRH); [11]): 100; SIDRH Obs (arrowleaf sida (SIDRH); [12]): 95; SIDRH Obs (arrowleaf sida (SIDRH); 62 DAA, 1500 g a.i./ha, scale 0 to 100): 80; SIDRH Obs (arrowleaf sida (SIDRH); 91 DAA, 1500 g a.i./ha, scale 0 to 100): 90; AMARE Obs (redroot pigweed (AMARE); 28 DAA): 100; AMARE Obs (redroot pigweed (AMARE); 56 DAA): 93
Nc1nc(C2CC2)nc(C(=O)O)c1Cl [Compound 1, 6-amino-5-chloro-2-cyclopropyl-4-pyrimidinecarboxylic acid]																					BIDPI Obs (common blackjack (BIDPI); [13]): 60; BIDPI Obs (common blackjack (BIDPI); [14]): 80; BIDPI Obs (common blackjack (BIDPI); [15]): 60; BIDPI Obs (common blackjack (BIDPI); [16]): 80; BIDPI Obs (common blackjack (BIDPI); 44 DAA, Cpd 2/Cpd 1 at 62 g a.i./ha, alone or + atrazine 1500 or metolachlor 2500): 40; BIDPI Obs (common blackjack (BIDPI); 44 DAA, Cpd 2/Cpd 1 at 125 g a.i./ha, alone or + atrazine 1500 or metolachlor 2500): 80; BIDPI Obs (common blackjack (BIDPI); 62 DAA, Cpd 2/Cpd 1 at 62 g a.i./ha, alone or + atrazine 1500 or metolachlor 2500): 40; BIDPI Obs (common blackjack (BIDPI); 62 DAA, Cpd 2/Cpd 1 at 125 g a.i./ha, alone or + atrazine 1500 or metolachlor 2500): 60; BIDPI Obs (common blackjack (BIDPI); 91 DAA, Cpd 2/Cpd 1 at 62 g a.i./ha, alone or + atrazine 1500 or metolachlor 2500): 0; BIDPI Obs (common blackjack (BIDPI); 91 DAA, Cpd 2/Cpd 1 at 125 g a.i./ha, alone or + atrazine 1500 or metolachlor 2500): 70; SIDRH Obs (arrowleaf sida (SIDRH); [13]): 40; SIDRH Obs (arrowleaf sida (SIDRH); [14]): 75; SIDRH Obs (arrowleaf sida (SIDRH); [15]): 60; SIDRH Obs (arrowleaf sida (SIDRH); [16]): 65; SIDRH Obs (arrowleaf sida (SIDRH); 44 DAA, 62 g a.i./ha, scale 0 to 100): 75; SIDRH Obs (arrowleaf sida (SIDRH); 44 DAA, 125 g a.i./ha, scale 0 to 100): 95; SIDRH Obs (arrowleaf sida (SIDRH); 62 DAA, 62 g a.i./ha, scale 0 to 100): 40; SIDRH Obs (arrowleaf sida (SIDRH); 62 DAA, 125 g a.i./ha, scale 0 to 100): 95; SIDRH Obs (arrowleaf sida (SIDRH); 91 DAA, 62 g a.i./ha, scale 0 to 100): 0; SIDRH Obs (arrowleaf sida (SIDRH); 91 DAA, 125 g a.i./ha, scale 0 to 100): 100
O=C(O)CNCP(=O)(O)O [Glyphosate]				100	97					84	84	100	98				98	100			SETFA Obs (giant foxtail (SETFA) [9]; 14 DAA): 100%; SETFA Obs (giant foxtail (SETFA) [9]; 28 DAA): 100%
CCc1cccc(C)c1N(C(=O)CCl)[C@@H](C)COC [S-Metolachlor, S-metolachlor, reference compound]	10	25	3			20	37	45	23					40	38	52			32	23	AMBEL Obs (common ragweed (AMBEL) [8]; 56 DAA): 23%; AMARE Obs (redroot pigweed (AMARE); 28 DAA): 100; AMARE Obs (redroot pigweed (AMARE); 56 DAA): 80
